Measurements from PubChem BioAssay AID200 (DTP/NCI, 2004).
Several values for one entry are separate records, joined by “and”; a condition that tells them apart may be missing. Equal values may be shown once. Toxic doses and inconclusive results are not listed. The calls were made as follows: active = survival T/C of 150% or more; inactive = T/C below 125% in these data.

Test system: B6C3F1 mice, B16 melanoma ip, median survival T/C
Assay: NCI In Vivo Anticancer Drug Screen. Data for tumor model B16 Melanoma (intraperitoneal) in B6C3F1 mice
Conditions: endpoint: median survival time, higher = longer survival
Procedure: The antitumor activity of compounds was measured in mice bearing transplantable tumors. Survival or tumor size were measured and the results are expressed as the measurement made in the treated group (T) divided by the measurement made in the vehicle treated control group (C). The tumor model used in this assay is B16 Melanoma (intraperitoneal) in B6C3F1 mice

[1] = dose: 2.5 mg/kg/injection, schedule: Q01DX009 (ip), vehicle: Klucel (hydroxypropylcellulose) (HPC)
[2] = dose: 5.0 mg/kg/injection, schedule: Q01DX009 (ip), vehicle: Klucel (hydroxypropylcellulose) (HPC)
[3] = dose: 10.0 mg/kg/injection, schedule: Q01DX009 (ip), vehicle: Klucel (hydroxypropylcellulose) (HPC)
[4] = dose: 6.25 mg/kg/injection, schedule: Q01DX009 (ip), vehicle: saline with Tween-80
[5] = dose: 25.0 mg/kg/injection, schedule: Q01DX009 (ip), vehicle: saline with Tween-80
[6] = dose: 50.0 mg/kg/injection, schedule: Q01DX009 (ip), vehicle: saline with Tween-80
[7] = dose: 1.25 mg/kg/injection, schedule: Q01DX009 (ip), vehicle: Klucel (hydroxypropylcellulose) (HPC)
[8] = dose: 12.5 mg/kg/injection, schedule: Q01DX009 (ip), vehicle: saline with Tween-80

Measured: T/C

CC(C)CC1C(=O)N2CCCC2C2(O)OC(NC(=O)C3C=C4c5cccc6[nH]cc(c56)CC4N(C)C3)(C(C)C)C(=O)N12 (centres undefined)
inactive: [1] 120 % of control | [2] 111 % of control | [3] 109 % of control | dose: 20.0 mg/kg/injection, schedule: Q01DX009 (ip), vehicle: Klucel (hydroxypropylcellulose) (HPC) 98 % of control | dose: 40.0 mg/kg/injection, schedule: Q01DX009 (ip), vehicle: Klucel (hydroxypropylcellulose) (HPC) 105 % of control

O=C1c2ccccc2C(=O)c2c3c(cc(NCCNCCO)c21)N(CCO)CCN3
active: dose: 100.0 mg/kg/injection, schedule: Q01DX009 (ip), vehicle: DMSO 167 % of control
inactive: dose: 25.0 mg/kg/injection, schedule: Q01DX009 (ip), vehicle: DMSO 108 % of control | dose: 50.0 mg/kg/injection, schedule: Q01DX009 (ip), vehicle: DMSO 112 % of control

N=C(N)c1ccc(N=Nc2c(O)ccc3cc(O)ccc23)cc1
inactive: dose: 0.19 mg/kg/injection, schedule: Q01DX009 (ip), vehicle: Klucel (hydroxypropylcellulose) (HPC) 114 % of control | dose: 0.39 mg/kg/injection, schedule: Q01DX009 (ip), vehicle: Klucel (hydroxypropylcellulose) (HPC) 99 % of control | dose: 0.78 mg/kg/injection, schedule: Q01DX009 (ip), vehicle: Klucel (hydroxypropylcellulose) (HPC) 92 % of control | dose: 1.56 mg/kg/injection, schedule: Q01DX009 (ip), vehicle: Klucel (hydroxypropylcellulose) (HPC) 92 % of control | dose: 6.25 mg/kg/injection, schedule: Q01DX009 (ip), vehicle: Klucel (hydroxypropylcellulose) (HPC) 97 % of control | dose: 12.5 mg/kg/injection, schedule: Q01DX009 (ip), vehicle: Klucel (hydroxypropylcellulose) (HPC) 97 % of control | dose: 25.0 mg/kg/injection, schedule: Q01DX009 (ip), vehicle: Klucel (hydroxypropylcellulose) (HPC) 87 % of control | dose: 50.0 mg/kg/injection, schedule: Q01DX009 (ip), vehicle: Klucel (hydroxypropylcellulose) (HPC) 89 % of control

CC1=C(C)C(=O)O[C@@H]([C@](C)(O)[C@]2(O)CC[C@@]3(O)[C@@H]4C[C@H]5O[C@]56[C@@H](O)C=CC(=O)[C@]6(C)[C@H]4CC[C@]23C)C1
active: dose: 4.0 mg/kg/injection, schedule: Q01DX009 (ip), vehicle: saline + alcohol 150 % of control | dose: 16.0 mg/kg/injection, schedule: Q01DX009 (ip), vehicle: saline 152 % of control and 171 % of control | dose: 16.0 mg/kg/injection, schedule: Q01DX009 (ip), vehicle: suspension in saline 170 % of control
inactive: dose: 0.25 mg/kg/injection, schedule: Q01DX009 (ip), vehicle: saline + alcohol 122 % of control | dose: 0.25 mg/kg/injection, schedule: Q01DX009 (ip), vehicle: saline 107 % of control | dose: 0.5 mg/kg/injection, schedule: Q01DX009 (ip), vehicle: saline + alcohol 117 % of control | dose: 0.5 mg/kg/injection, schedule: Q01DX009 (ip), vehicle: saline 116 % of control | dose: 1.0 mg/kg/injection, schedule: Q01DX009 (ip), vehicle: saline + alcohol 122 % of control | dose: 1.0 mg/kg/injection, schedule: Q01DX009 (ip), vehicle: saline 115 % of control and 124 % of control | dose: 2.0 mg/kg/injection, schedule: Q01DX009 (ip), vehicle: saline 115 % of control

O=C(Oc1ccc(-c2ccc(Br)cc2)cc1)c1ccco1
inactive: dose: 0.78 mg/kg/injection, schedule: Q01DX009 (ip), vehicle: saline with Tween-80 107 % of control | dose: 1.56 mg/kg/injection, schedule: Q01DX009 (ip), vehicle: saline with Tween-80 106 % of control | dose: 3.13 mg/kg/injection, schedule: Q01DX009 (ip), vehicle: saline with Tween-80 102 % of control | [4] 111 % of control and 100 % of control | [5] 92 % of control | [6] 97 % of control

CC(=O)OCC1OC([S-])C(OC(C)=O)C(OC(C)=O)C1OC(C)=O.CC[PH+](CC)CC.CC[PH+](CC)CC.[Au].[Au] (centres undefined)
inactive: dose: 0.62 mg/kg/injection, schedule: Q01DX009 (ip), vehicle: Klucel (hydroxypropylcellulose) (HPC) 110 % of control and 105 % of control | [7] 109 % of control | [1] 98 % of control and 103 % of control | [2] 114 % of control and 97 % of control | [3] 92 % of control

COc1ccc(S(=O)(=O)N/N=C/C(=O)O)cc1
inactive: [4] 101 % of control and 104 % of control | [8] 116 % of control and 120 % of control | [6] 119 % of control

O=C1C=C(Nc2ccc(O)cc2)c2ccccc2C1=O
inactive: dose: 5.0 mg/kg/injection, schedule: Q01DX009 (ip), vehicle: saline 102 % of control | dose: 10.0 mg/kg/injection, schedule: Q01DX009 (ip), vehicle: saline 98 % of control | dose: 20.0 mg/kg/injection, schedule: Q01DX009 (ip), vehicle: saline 93 % of control

CCC1CN2CCC3(C(=O)Nc4ccccc43)C2CC1/C(=C/OC)C(=O)OC (centres undefined)
inactive: [4] 90 % of control | [8] 108 % of control | [5] 93 % of control | [6] 93 % of control

CS(C)(O)NC(N)=O
inactive: dose: 50.0 mg/kg/injection, schedule: Q01DX009 (ip), vehicle: water 105 % of control | dose: 100.0 mg/kg/injection, schedule: Q01DX009 (ip), vehicle: water 103 % of control | dose: 200.0 mg/kg/injection, schedule: Q01DX009 (ip), vehicle: water 100 % of control | dose: 400.0 mg/kg/injection, schedule: Q01DX009 (ip), vehicle: water 105 % of control

S=C(NCNC(=S)c1ccncc1)c1ccncc1
inactive: [6] 102 % of control | dose: 100.0 mg/kg/injection, schedule: Q01DX009 (ip), vehicle: saline with Tween-80 91 % of control | dose: 200.0 mg/kg/injection, schedule: Q01DX009 (ip), vehicle: saline with Tween-80 100 % of control | dose: 400.0 mg/kg/injection, schedule: Q01DX009 (ip), vehicle: saline with Tween-80 104 % of control

O=C(Nc1ccccc1)c1c(O)[nH]c(=O)[nH]c1=O
inactive: [8] 103 % of control | [5] 110 % of control and 100 % of control | [6] 114 % of control and 115 % of control

CCOC(=O)C(CC(C)C)NC(=O)C(Cc1ccc(N(CCCl)CCCl)cc1)NC(C)=O (centres undefined)
inactive: dose: 8.0 mg/kg/injection, schedule: Q01DX009 (ip), vehicle: saline with Tween-80 105 % of control | dose: 16.0 mg/kg/injection, schedule: Q01DX009 (ip), vehicle: saline with Tween-80 102 % of control
active: dose: 64.0 mg/kg/injection, schedule: Q01DX009 (ip), vehicle: saline with Tween-80 160 % of control

O=C(O)C(CSC(c1ccccc1)(c1ccccc1)c1ccccc1)N=Cc1cccs1 (centres undefined)
inactive: dose: 12.5 mg/kg/injection, schedule: Q01DX009 (ip), vehicle: suspension in saline 112 % of control | dose: 25.0 mg/kg/injection, schedule: Q01DX009 (ip), vehicle: suspension in saline 118 % of control

CC(=O)O[C@H]1C(=O)[C@@]2(C)[C@H]([C@H](OC(=O)c3ccccc3)[C@]3(O)C[C@H](OC(=O)[C@H](O)[C@@H](NC(=O)c4ccccc4)c4ccccc4)C(C)=C1C3(C)C)[C@]1(OC(C)=O)CO[C@@H]1C[C@@H]2O
active: dose: 1.25 mg/kg/injection, schedule: Q01DX008 (ip), vehicle: Klucel (hydroxypropylcellulose) (HPC) 187 % of control | [7] 155 % of control and 171 % of control | dose: 1.88 mg/kg/injection, schedule: Q01DX009 (ip), vehicle: Klucel (hydroxypropylcellulose) (HPC) 213 % of control | dose: 2.5 mg/kg/injection, schedule: Q01DX008 (ip), vehicle: Klucel (hydroxypropylcellulose) (HPC) 221 % of control | dose: 3.75 mg/kg/injection, schedule: Q01DX009 (ip), vehicle: Klucel (hydroxypropylcellulose) (HPC) 225 % of control | dose: 5.0 mg/kg/injection, schedule: Q01DX008 (ip), vehicle: Klucel (hydroxypropylcellulose) (HPC) 232 % of control | dose: 6.25 mg/kg/injection, schedule: Q04DX003 (ip), vehicle: Klucel (hydroxypropylcellulose) (HPC) 174 % of control and 186 % of control | dose: 7.5 mg/kg/injection, schedule: Q01DX009 (ip), vehicle: Klucel (hydroxypropylcellulose) (HPC) 327 % of control | dose: 10.0 mg/kg/injection, schedule: Q01DX009 (ip), vehicle: other 154 % of control and 175 % of control | dose: 12.5 mg/kg/injection, schedule: Q04DX003 (ip), vehicle: Klucel (hydroxypropylcellulose) (HPC) 201 % of control and 231 % of control | dose: 25.0 mg/kg/injection, schedule: Q04DX003 (ip), vehicle: Klucel (hydroxypropylcellulose) (HPC) 237 % of control and 254 % of control | dose: 50.0 mg/kg/injection, schedule: Q04DX003 (ip), vehicle: Klucel (hydroxypropylcellulose) (HPC) 169 % of control and 222 % of control
inactive: dose: 10.0 mg/kg/injection, schedule: Q01DX008 (ip), vehicle: Klucel (hydroxypropylcellulose) (HPC) 112 % of control | dose: 20.0 mg/kg/injection, schedule: Q01DX008 (ip), vehicle: Klucel (hydroxypropylcellulose) (HPC) 92 % of control | dose: 30.0 mg/kg/injection, schedule: Q01DX009 (ip), vehicle: Klucel (hydroxypropylcellulose) (HPC) 89 % of control | dose: 100.0 mg/kg/injection, schedule: Q04DX003 (ip), vehicle: Klucel (hydroxypropylcellulose) (HPC) 118 % of control
